Results published in patent publication US20090298825A1, “Bicycloheteroaryl Compounds as P2x7 Modulators and Uses Thereof” (priority 2006, published 2009).
pIC50: −log10 of the molar value.

Biological target: T1, P2X7 receptor (Homo sapiens, UniProt Q99572)
T1 construct: endogenous in cells; host or cells: THP-1 cells differentiated with LPS and IFN-γ
T1 sequence (Q99572 1-595): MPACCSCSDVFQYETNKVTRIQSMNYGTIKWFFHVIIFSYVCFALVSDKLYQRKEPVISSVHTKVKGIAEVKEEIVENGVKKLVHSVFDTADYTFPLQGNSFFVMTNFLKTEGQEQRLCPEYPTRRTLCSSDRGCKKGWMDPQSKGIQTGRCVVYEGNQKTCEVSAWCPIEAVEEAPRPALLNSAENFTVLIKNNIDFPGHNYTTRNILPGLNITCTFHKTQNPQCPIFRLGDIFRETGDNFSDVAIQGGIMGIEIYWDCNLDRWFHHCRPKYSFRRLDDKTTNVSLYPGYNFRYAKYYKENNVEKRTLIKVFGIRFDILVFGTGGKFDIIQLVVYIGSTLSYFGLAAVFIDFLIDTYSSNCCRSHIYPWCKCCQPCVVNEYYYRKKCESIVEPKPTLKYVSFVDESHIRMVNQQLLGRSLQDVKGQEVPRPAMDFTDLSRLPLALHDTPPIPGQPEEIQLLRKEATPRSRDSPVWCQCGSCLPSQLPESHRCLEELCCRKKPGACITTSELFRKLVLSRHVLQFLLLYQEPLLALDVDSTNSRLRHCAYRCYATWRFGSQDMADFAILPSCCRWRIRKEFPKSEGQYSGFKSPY
Assay: IL-1β release assay in differentiated THP-1 cells stimulated with BzATP (Example 9)
Format: cell-based
Details: for inhibition at 0.1 µM: 0.1 μM concentration; for inhibition at 0.1 µM / inhibition at 0.3 µM: read-out: IL-1β % Inhib. @ 0.3 or 0.1 μM; for inhibition at 0.3 µM: 0.3 μM concentration; for pIC50: four parameter logistic fit, read-out: IL-1β IC50
Procedure: The cells are then pretreated for 30 minutes with the compound of interest at the appropriate concentration in RPMI media containing 100 IU/mL penicillin, 100 ug/mL streptomycin. […] 30 uL of cell supernatant is then collected and IL-1β levels determined via ELISA (R&D systems Cat. # HSLB50) according to manufacturer's recommendations using the Tecan Safire plate reader. Background adjusted IL-1β levels of drug treated and non-treated cells are used to calculate the percent inhibition.
The compounds set forth in Table 1 were tested for activity in a cellular model as described herein. […] Measurements were made and IC50 values, presented in Table 2, below, were determined by fitting the data to a four parameter logistic equation using GraphPad Prism software (GraphPad Software, Inc). The equation may be expressed by the following formula:
Y=Bottom+(Top-Bottom)/(1+10̂((Log EC50−X)*HillSlope))
Where X is the logarithm of concentration, Y is the response and Y starts at Bottom and goes to Top with a sigmoid shape.

SMILES: CCOC(=O)N1CCC(n2ccc3c(NC(=O)Cc4ccccc4OCC)cccc3c2=O)CC1 [ID 805]
- inhibition at 0.1 µM: 0 to 25%

SMILES: Cc1ncccc1-n1ccc2c(NC(=O)Cc3ccc(C(F)(F)F)cc3C(F)(F)F)cccc2c1=O [ID 868]
- inhibition at 0.3 µM: > 76%
- pIC50: 7.16

SMILES: CC(C(=O)Nc1cccc2c(=O)n(-c3cc[nH]n3)ccc12)C1CCCCCC1 (centres unmarked) [ID 843]
- inhibition at 0.3 µM: > 76%
- pIC50: 7.91

SMILES: O=C(Cc1ccc(Cl)c(C(F)(F)F)c1)Nc1cccc2c(=O)n([C@H]3CCNC3)ccc12 [ID 836]
- pIC50: 7.80

SMILES: CCOC(=O)N1CCC(n2ccc3c(NC(=O)Cc4ccc(OC)cc4)cccc3c2=O)CC1 [ID 785]
- inhibition at 0.1 µM: 0 to 25%

SMILES: O=C(Cc1ccc(Cl)c(C(F)(F)F)c1)Nc1cccc2c(=O)n(C3CC3)ccc12 [ID 890]
- inhibition at 0.3 µM: > 76%
- pIC50: 8.36

SMILES: O=C(Cc1ccc(Cl)c(Cl)c1)Nc1cccc2c(=O)n([C@@H]3CCNC3)ccc12 [ID 827]
- inhibition at 0.3 µM: > 76%
- pIC50: 7.59

SMILES: CCOC(=O)N1CCC(n2ccc3c(NC(=O)Cc4ccc(OC)cc4OC)cccc3c2=O)CC1 [ID 804]
- inhibition at 0.1 µM: 0 to 25%

SMILES: CCOC(=O)N1CCC(n2ccc3c(NC(=O)Cc4ccc5c(c4)OCO5)cccc3c2=O)CC1 [ID 790]
- inhibition at 0.1 µM: 0 to 25%

SMILES: C[C@H](C(=O)Nc1cccc2c(=O)n([C@H]3CCNC3)ccc12)c1ccc(Cl)c(Cl)c1 [ID 832]
- inhibition at 0.3 µM: > 76%
- pIC50: 7.13

SMILES: O=C(Cc1cccc(C(F)(F)F)c1F)Nc1cccc2c(=O)n(C3CC3)ccc12 [ID 885]
- inhibition at 0.3 µM: > 76%
- pIC50: 9.49

SMILES: O=C(CC1CCCCCC1)Nc1cccc2c(=O)n([C@H]3CCNC3)ccc12 [ID 824]
- inhibition at 0.3 µM: > 76%
- pIC50: 8.49

SMILES: Cc1ccncc1-n1ccc2c(NC(=O)Cc3ccc(C(F)(F)F)c(F)c3)cccc2c1=O [ID 856]
- inhibition at 0.3 µM: > 76%
- pIC50: 6.89

SMILES: O=C(Cc1ccc(F)c(Cl)c1)Nc1cccc2c(=O)n(C3CC3)ccc12 [ID 881]
- inhibition at 0.3 µM: > 76%
- pIC50: 8.36

SMILES: CCOC(=O)N1CCC(n2ccc3c(NC(=O)c4cc(OC)cc(OC)c4)cccc3c2=O)CC1 [ID 769]
- inhibition at 0.1 µM: 26 to 50%

SMILES: CCOC(=O)N1CCC(n2ccc3c(NC(=O)c4cccc5c4OCCO5)cccc3c2=O)CC1 [ID 798]
- inhibition at 0.1 µM: 0 to 25%

SMILES: O=C(Cc1ccc(C(F)(F)F)cc1)Nc1cccc2c(=O)n(C3CCC3)ccc12 [ID 891]
- inhibition at 0.3 µM: 51 to 75%
- pIC50: 6.55

SMILES: O=C(CC1(O)CCCCCC1)Nc1cccc2c(=O)n([C@@H]3CCNC3)ccc12 [ID 837]
- inhibition at 0.3 µM: 51 to 75%
- pIC50: 6.56

SMILES: CCOC(=O)N1CCC(n2ccc3c(NC(=O)Cc4ccc(OCC)cc4)cccc3c2=O)CC1 [ID 786]
- inhibition at 0.1 µM: 0 to 25%

SMILES: CC(C(=O)Nc1cccc2c(=O)n(-c3n[nH]cc3C#N)ccc12)c1ccc(Cl)c(C(F)(F)F)c1 (centres unmarked) [ID 840]
- inhibition at 0.3 µM: > 76%
- pIC50: 7.42

SMILES: O=C(Cc1cccc(C(F)(F)F)c1F)Nc1cccc2c(=O)n(-c3cccnc3F)ccc12 [ID 874]
- inhibition at 0.3 µM: > 76%
- pIC50: 7.55

SMILES: Cc1ncccc1-n1ccc2c(NC(=O)Cc3ccc(C(F)(F)F)cc3)cccc2c1=O [ID 851]
- inhibition at 0.3 µM: > 76%
- pIC50: 6.83

SMILES: CCOC(=O)N1CCC(n2ccc3c(NC(=O)CCc4ccc(OC)cc4)cccc3c2=O)CC1 [ID 776]
- inhibition at 0.1 µM: 0 to 25%

SMILES: O=C(Cc1ccc(Cl)c(F)c1)Nc1cccc2c(=O)n(C3CC3)ccc12 [ID 882]
- inhibition at 0.3 µM: > 76%
- pIC50: 8.22

SMILES: CC(C(=O)Nc1cccc2c(=O)n(C3CCNC3)ccc12)c1ccc(Cl)cc1 (centres unmarked) [ID 821]
- inhibition at 0.3 µM: 51 to 75%
- pIC50: 6.60

SMILES: O=C(Cc1ccc(F)c(C(F)(F)F)c1)Nc1cccc2c(=O)n(-c3cccnc3F)ccc12 [ID 872]
- inhibition at 0.3 µM: > 76%
- pIC50: 7.52

SMILES: Cc1cc(-n2ccc3c(NC(=O)c4cccc5c4OCCO5)cccc3c2=O)no1 [ID 736]
- inhibition at 0.1 µM: 0 to 25%

SMILES: Cc1cc(-n2ccc3c(NC(=O)c4ccccc4C)cccc3c2=O)no1 [ID 720]
- inhibition at 0.1 µM: 0 to 25%

SMILES: CCOC(=O)N1CCC(n2ccc3c(NC(=O)CCc4ccccc4C)cccc3c2=O)CC1 [ID 751]
- inhibition at 0.1 µM: 0 to 25%

SMILES: CCOC(=O)N1CCC(n2ccc3c(NC(=O)CCc4cccc(Cl)c4)cccc3c2=O)CC1 [ID 811]
- inhibition at 0.1 µM: 0 to 25%

SMILES: Cc1ccncc1-n1ccc2c(NC(=O)Cc3ccc(C(F)(F)F)cc3)cccc2c1=O [ID 853]
- inhibition at 0.3 µM: 51 to 75%
- pIC50: 6.61

SMILES: Cc1cc(-n2ccc3c(NC(=O)Cc4ccccc4C)cccc3c2=O)no1 [ID 729]
- inhibition at 0.1 µM: 0 to 25%

SMILES: O=C(Cc1ccc(Cl)c(C(F)(F)F)c1)Nc1cccc2c(=O)n(-c3cccnc3N3CCOCC3)ccc12 [ID 848]
- inhibition at 0.3 µM: > 76%
- pIC50: 7.35

SMILES: O=C(Cc1ccc(C(F)(F)F)cc1)Nc1cccc2c(=O)n(C3CC3)ccc12 [ID 877]
- inhibition at 0.3 µM: > 76%
- pIC50: 7.63

SMILES: O=C(Cc1ccc(C(F)(F)F)cc1F)Nc1cccc2c(=O)n(C3CCC3)ccc12 [ID 887]
- inhibition at 0.3 µM: > 76%
- pIC50: 7.55

SMILES: O=C(Cc1ccc(C(F)(F)F)c(F)c1)Nc1cccc2c(=O)n(C3CCC3)ccc12 [ID 892]
- inhibition at 0.3 µM: > 76%
- pIC50: 7.66

SMILES: CCOC(=O)N1CCC(n2ccc3c(NC(=O)c4ccc(CC(C)C)cc4)cccc3c2=O)CC1 [ID 812]
- inhibition at 0.1 µM: 0 to 25%

SMILES: CC(C(=O)Nc1cccc2c(=O)n(-c3cc[nH]n3)ccc12)c1ccc(Cl)c(C(F)(F)F)c1 (centres unmarked) [ID 839]
- inhibition at 0.3 µM: > 76%
- pIC50: 7.85

SMILES: COc1ccc(C(=O)Nc2cccc3c(=O)n(-c4cc(C)on4)ccc23)cc1C [ID 744]
- inhibition at 0.1 µM: 0 to 25%

SMILES: CCOC(=O)N1CCC(n2ccc3c(NC(=O)c4ccc(OC)c(C)c4)cccc3c2=O)CC1 [ID 809]
- inhibition at 0.1 µM: 0 to 25%

SMILES: O=C(Cc1ccc(Cl)c(C(F)(F)F)c1)Nc1cccc2c(=O)n(-c3cccnc3F)ccc12 [ID 870]
- inhibition at 0.3 µM: > 76%
- pIC50: 8.30

SMILES: CCOC(=O)N1CCC(n2ccc3c(NC(=O)c4cc(C)c(OC)c(C)c4)cccc3c2=O)CC1 [ID 792]
- inhibition at 0.1 µM: 0 to 25%

SMILES: CCOC(=O)N1CCC(n2ccc3c(NC(=O)C45CC6C[C@H](C4)C[C@@](O)(C6)C5)cccc3c2=O)CC1 [ID 796]
- inhibition at 0.1 µM: 0 to 25%

SMILES: CCOC(=O)N1CCC(n2ccc3c(NC(=O)C4C[C@@H]5CC[C@H]4C5)cccc3c2=O)CC1 (some centres unmarked) [ID 803]
- inhibition at 0.1 µM: 0 to 25%

SMILES: C[C@H](C(=O)Nc1cccc2c(=O)n(C3CC3)ccc12)c1ccc(Cl)cc1 [ID 894]
- inhibition at 0.3 µM: > 76%
- pIC50: 7.50

SMILES: Cc1cc(-n2ccc3c(NC(=O)CCc4ccccc4Cl)cccc3c2=O)no1 [ID 718]
- inhibition at 0.1 µM: 0 to 25%

SMILES: CCOC(=O)N1CCC(n2ccc3c(NC(=O)Cc4ccc(C)cc4)cccc3c2=O)CC1 [ID 787]
- inhibition at 0.1 µM: 0 to 25%

SMILES: COc1ccc(CC(=O)Nc2cccc3c(=O)n(-c4cc(C)on4)ccc23)cc1 [ID 732]
- inhibition at 0.1 µM: 0 to 25%

SMILES: O=C(CC12CC3CC(CC(C3)C1)C2)Nc1cccc2c(=O)n(-c3ccc(Oc4ccccc4)nc3)ccc12 [ID 711]
- inhibition at 0.3 µM: > 76%
- pIC50: 9.14

SMILES: CCOC(=O)N1CCC(n2ccc3c(NC(=O)c4ccc(OCC)cc4O)cccc3c2=O)CC1 [ID 748]
- inhibition at 0.1 µM: 0 to 25%

SMILES: CC(C(=O)Nc1cccc2c(=O)n([C@@H]3CCNC3)ccc12)c1ccc(Cl)cc1 (some centres unmarked) [ID 835]
- inhibition at 0.3 µM: 51 to 75%
- pIC50: 6.82

SMILES: Cc1cc(-n2ccc3c(NC(=O)Cc4ccccc4F)cccc3c2=O)no1 [ID 726]
- inhibition at 0.1 µM: 0 to 25%

SMILES: CCOC(=O)N1CCC(n2ccc3c(NC(=O)c4ccc(OCC)cc4)cccc3c2=O)CC1 [ID 771]
- inhibition at 0.1 µM: 0 to 25%

SMILES: Cc1ncccc1-n1ccc2c(NC(=O)Cc3ccc(Cl)c(F)c3)cccc2c1=O [ID 858]
- inhibition at 0.3 µM: > 76%
- pIC50: 7.48

SMILES: O=C(CC12CC3CC(CC(C3)C1)C2)Nc1cccc2c(=O)n(-c3ccc(Sc4cc(Cl)ccc4Cl)nc3)ccc12 [ID 707]
- inhibition at 0.3 µM: > 76%
- pIC50: 8.79

SMILES: O=C(CC12CC3CC(CC(C3)C1)C2)Nc1cccc2c(=O)n(C3CC3)ccc12 [ID 889]
- inhibition at 0.3 µM: > 76%
- pIC50: 9.11

SMILES: COc1ccccc1CCC(=O)Nc1cccc2c(=O)n(-c3cc(C)on3)ccc12 [ID 724]
- inhibition at 0.1 µM: 0 to 25%

SMILES: O=C(Cc1ccc(Cl)c(C(F)(F)F)c1)Nc1cccc2c(=O)n(-c3cc[nH]n3)ccc12 [ID 842]
- inhibition at 0.3 µM: > 76%
- pIC50: 8.91

SMILES: Cc1cc(-n2ccc3c(NC(=O)C(C)c4ccc(Cl)c(C(F)(F)F)c4)cccc3c2=O)n[nH]1 (centres unmarked) [ID 838]
- inhibition at 0.3 µM: > 76%
- pIC50: 7.83

SMILES: CCOC(=O)N1CCC(n2ccc3c(NC(=O)CCc4cccc(C)c4)cccc3c2=O)CC1 [ID 807]
- inhibition at 0.1 µM: 0 to 25%
